{"source": "patent US7432051B2", "about": "“Erythropoietin and erythropoietin receptor expression in human cancer” (The Henry M. Jackson Foundation for the Advancement of …, priority 2000, dated 2008)", "key": {"U251 cells [1]": {"system": "U251 cells", "assay": "Western blot of EpoR associated signaling (tyrosine phosphorylation, Jak-2, STAT-5, Akt)", "type": "cell-based, human", "experimental": "(§1) After the treatments to the cell culture dishes described in Example 10, the cells were washed once with 10 ml cold Dulbecco's phosphate-buffered saline (PBS), scraped into 1.5 ml of PBS on ice, and pelleted by centrifugation at 2,000 rpm for three minutes at 4° C. Cell pellets were washed once with 5 packed cell volumes of buffer A (10 mM Tris-HCl (pH 7.5), 1.5 mM magnesium chloride, 10 mM KCl), freshly supplemented with Complete, EDTA-free Protease Inhibitor Cocktail (Roche) and 2 mM dithiothreitol (DTT)), and resuspended in four packed cell volumes of buffer A. After incubation on ice for 10 min, cell suspension was homogenized with thirty strokes in a glass douncer (Wheaton) with type-b pestle. Nuclei were pelleted at 1,000 rpm for ten minutes and resuspended in four packed nuclear volumes of buffer C (20 mM Tris-HCl (pH 7.5), 0.42 M KCl, 1.5 mM magnesium chloride, 20% glycerol, freshly supplemented with Complete, EDTA-free Protease Inhibitor Cocktail (Roche) and 2 mM DTT), and rotated for thirty minutes at 4° C. After centrifugation at 1,400 rpm for thirty minutes, the nuclear extracts were aliquoted and stored at −80° C. Protein concentration was determined by the method of Bradford with a commercial kit (Bio-Rad) using bovine serum albumin as standard. HIF-1α protein was detected by immunoblot analysis. Twenty five to thirty μg of nuclear extracts were boiled for five minutes in 2× denaturing buffer, and loaded onto SDS-7% polyacrylamide gels. After transfer, membranes were blocked with 5% milk in TBST (10 mM Tris-HCl, 150 mM NaCl, 0.1% Tween, pH 7.8) for one and a half hours at room temperature and subsequently incubated with mouse monoclonal HIF-1α antibody (Transduction Labs) for two hours. The membranes were washed with TBST three times and incubated with horseradish peroxidase-conjugated secondary antibody. Then, the membranes were washed three times with TBST and analyzed by enhanced chemiluminescence (Pierce). Analysis of EpoR and phosphotyrosine immunoreactivity was performed as reported previously (Acs et al. (2001) Cancer Res. 61, 3561-3565).\nUsing the Western blotting techniques described in Example 11 above, the immunoreactive EpoR expressed in human gliomas was further tested to see if it was functional. Cultured U251 cells were stimulated with recombinant human erythropoietin. […] Tyrosine phosphorylation could also be elicited by an Epo-mimetic peptide (EMP) and by Epoetin-alfa, the clinically used form of Epo (FIG. 11B). Using phospho-specific antibodies, we also detected rhEpo stimulated Jak-2 and STAT-5 tyrosine phosphorylation as well as phosphorylation of Akt (FIG. 12C)."}, "MCF-7 cells [2]": {"system": "MCF-7 cells", "assay": "3H-thymidine incorporation assay of DNA synthesis", "type": "cell-based, human", "experimental": "(§2) To determine whether Epo exerts trophic effects on breast cancer cell lines, the effect of exogenously added Epo on DNA synthesis was examined in MCF-7 and BT-549 cells. DNA synthesis was measured using a ^3H-thymidine incorporation assay. Breast cancer cells plated in six well plates in one ml DMEM supplemented with 20% fetal bovine serum per well were allowed to incubate for sixteen hours. Cells were switched to one ml phenol-free DMEM at the time of treatments. recombinant human Epo (rhEpo) (10 units), or either anti-Epo or anti-EpoR antibodies ([…]) was then added directly to the medium and the cells cultured for another sixteen hours. Thymidine labeling was performed by adding one […] (NEN Life Sciences) for one hour and DNA associated counts were then determined by liquid scintillation as described (Assandri et al. (1999) J. Physiol. 516, 343-352)."}, "BT-549 cells": {"system": "BT-549 cells", "assay": "3H-thymidine incorporation assay of DNA synthesis", "type": "cell-based, human", "experimental": "as §2"}, "[3]": {"system": "cell lines derived from a wide range of tumors including two breast cancer cell lines", "conditions": "in particular low doses of erythropoietin; cited from earlier work"}, "MCF-7 cells [4]": {"system": "MCF-7 cells", "assay": "Western blot of phosphotyrosine containing proteins", "type": "cell-based, human", "conditions": "five minute incubation; 250 units/ml rhEpo or 10 μM Epo mimetic peptide"}, "U251 cells [5]": {"system": "U251 cells", "assay": "Serum withdrawal cell survival", "type": "cell-based, human", "conditions": "inhibitor added at change to serum-free media, forty-eight hours", "experimental": "(§3) U251 cells were grown in 96-well culture dishes to approximately 85% confluence. Serum was withdrawn overnight and 10 μM Cisplatin was added for twenty-four hours. […] Control groups underwent similar serum withdrawal but no Cisplatin exposure. Where indicated rhEpo or Epoetin-alfa was added thirty minutes prior to the addition of cisplatin. Serum withdrawal studies involved assessment of cell survival forty-eight hours following change to serum-free media. […] Where indicated, Epoetin-alfa, tyrosine kinase inhibitors or PI3K inhibitors were added at the time of change to serum-free media. The Student's T-test was used to determine statistically significant differences between treatment groups."}, "U251 cells [6]": {"system": "U251 cells", "assay": "Chemotherapeutic drug toxicity, cell survival by MTT assay", "type": "cell-based, human", "conditions": "serum-free media", "experimental": "as §3"}, "U251 cells [7]": {"system": "U251 cells", "assay": "Hypoxia-sensing response (HIF-1α immunoblot, HIF-1 gelshift, RT-PCR and Western blot for Epo/EpoR)", "type": "cell-based, human", "conditions": "150 μM DFX, six-hour treatment", "experimental": "Human glioma cell lines (ATCC) and normal human astrocytes (Clonetics) were cultured in Eagle's MEM medium supplemented with 10% fetal bovine serum, and 1% (v/v) penicillin/streptomycin. The cells were grown to 90% confluence in 10 cm culture dishes. For hypoxia treatment, the culture dishes were sealed in modulator incubator chamber, flushed with gas containing 1% oxygen, 5% carbon dioxide, 94% nitrogen for five minutes, and incubated at 37° C. for four to six hours. For desferrioxamine (DFX) treatment, the cells were cultured with same medium containing […] DFX and incubated in cell culture incubator. Paraffin sections (5 μm) of the human GBMs were prepared and stained by immunohistochemistry methods as described previously (Acs et al. (2001) Cancer Res. 61, 3561-3565).\nas §1\nOligonucleotide probe was generated by 5′ end labeling of the sense strand with gamma-[^32P]ATP (Dupont-NEN) and T4 polynucleotide kinase (Gibco-BRL), annealing to a ten-fold excess of antisense strand, and purification by using NucTrap Probe Purification Column (Stratagene). Binding reactions were carried out in a total volume of 20 μl containing 7.0 μg of nuclear extract and 0.2 μg of calf thymus DNA in buffer Z (20 mM Tris-HCl (pH 7.5), 0.1 M KCl, 0.2 mM EDTA, 20% glycerol, freshly supplemented with 2 mM DTT, 0.4 mM PMSF and 1 mM Na3PO4). […]"}, "[8]": {"conditions": "10 units/ml exogenous rhEpo, p<0.01"}, "[9]": {"conditions": "rhEpo (10 units) in one ml medium, sixteen hours, p<0.01"}}}
{"compound": "rhEpo: recombinant human Epo (rhEpo), R & D systems", "values": [{"measurement": "Jak-2 tyrosine phosphorylation", "setting": "U251 cells [1]; phospho-specific antibodies", "value": "stimulated"}, {"measurement": "STAT-5 tyrosine phosphorylation", "setting": "U251 cells [1]; phospho-specific antibodies", "value": "stimulated"}, {"measurement": "phosphorylation of the PI3K substrate Akt", "setting": "U251 cells [1]; phospho-specific antibodies", "value": "stimulated"}, {"measurement": "tyrosine phosphorylation in several proteins", "setting": "U251 cells [1]; serum free media, rhEpo 10 U/ml single dose, EMP and Epoetin-alfa thirty minute treatments", "value": "prominent, rapid, and long lasting activation"}, {"measurement": "duration of tyrosine phosphorylation", "setting": "U251 cells [1]; single dose 10 U/ml rhEpo", "value": "more than two hours"}, {"measurement": "onset of tyrosine phosphorylation", "setting": "U251 cells [1]; single dose 10 U/ml rhEpo", "value": "within one minute"}, {"measurement": "enhancement of 3H-thymidine incorporation", "setting": "MCF-7 cells [2]; [8]", "value": "about 25%"}, {"measurement": "3H-thymidine incorporation, effect in words", "setting": "MCF-7 cells [2]; rhEpo 100 units/ml (FIG. 2)", "value": "enhanced"}, {"measurement": "potentiation of DNA synthesis", "setting": "MCF-7 cells [2]; [9]", "value": "approximately 20%"}, {"measurement": "enhancement of 3H-thymidine incorporation", "setting": "BT-549 cells; [8]", "value": "about 25%"}, {"measurement": "3H-thymidine incorporation, effect in words", "setting": "BT-549 cells; rhEpo 100 units/ml (FIG. 2)", "value": "enhanced"}, {"measurement": "potentiation of DNA synthesis", "setting": "BT-549 cells; [9]", "value": "approximately 20%"}, {"measurement": "stimulation of cancer cell proliferation", "setting": "[3]", "value": "no significant stimulation"}, {"measurement": "levels of phosphotyrosine containing proteins versus basal", "setting": "MCF-7 cells [4]", "value": "markedly enhanced"}]}
{"compound": "O=c1c(-c2ccc(O)cc2)coc2cc(O)cc(O)c12", "note": "[Genistein, reference compound]", "values": [{"measurement": "effect on the protective effect of Epoetin-alfa", "setting": "U251 cells [5]", "value": "blocked"}]}
{"compound": "N.N.[Cl][Pt][Cl]", "note": "[Cisplatin, reference compound]", "values": [{"measurement": "cells killed (cell death)", "setting": "U251 cells [6]; 10 μM Cisplatin, overnight / twenty-four hours", "value": "approximately 80%"}, {"measurement": "survival fraction", "setting": "U251 cells [6]; Cisplatin overnight", "value": 0.2}]}
{"compound": "CC(=O)N(O)CCCCCNC(=O)CCC(=O)N(O)CCCCCNC(=O)CCC(=O)N(O)CCCCCN", "note": "[DFX, desferrioximine]", "values": [{"measurement": "Epo mRNA expression (RT-PCR)", "setting": "U251 cells [7]", "value": "prominent induction"}, {"measurement": "EpoR mRNA expression (RT-PCR)", "setting": "U251 cells [7]", "value": "not induced"}, {"measurement": "HIF-1 gelshift activity", "setting": "U251 cells [7]", "value": "dramatically upregulating"}, {"measurement": "immunoreactive EpoR protein levels", "setting": "U251 cells [7]", "value": "enhanced"}, {"measurement": "level of HIF-1α protein", "setting": "U251 cells [7]", "value": "dramatically upregulating"}]}
